# According to PMC7016952, “Characterization of the Menin-MLL Interaction as Therapeutic Cancer Target” (Cancers, 2020):
# Experiments:
# [1] = system: MEIS1, MNDA and CD11b expression in MV4;11 and MOLM-13 cells; assay: qRT-PCR of hematopoietic differentiation genes; format: cell-based, human; conditions: four days of treatment, in comparison to MI-503
# Experimental: (§1) Total RNA was isolated using RNeasy-Plus Mini kit (Qiagen, Hilden, Germany). RNA (1 μg) was reverse transcribed using SuperScript III First-Strand Synthesis SuperMix (Life Technologies) and the generated cDNA was analyzed with commercial primers (Supplementary Materials Table S1) by qRT-PCR using TaqMan Fast Advanced Master Mix (Life Technologies). For the RNA-seq study, ZR-75-1, BT474, PANC-1, MiaPaCa-2, 22RV1, JMSU-1, DLD-1, SW1463, LoVo and G401 cells were treated with 5 µM BAY-155 or DMSO for 48 h prior to RNA extraction. After 48 h of 5 µM BAY-155 or DMSO treatment, MCF7, VCaP and LNCaP cells were stimulated for further 12 h with 0.1 nM of E2 (ß-Estradiol) or 1 nM R1881, respectively. MCF7, VCaP and LNCaP cells were cultured in starvation medium (containing 5 µM BAY-155 or DMSO) 6 h before stimulation. RNA was isolated using RNeasy-Plus Mini kit (Qiagen). The purified RNA was used for library preparation (Illumina, San Diego, CA, USA. TruSeq Stranded mRNA Kit) and the generated libraries were sequenced (Illumina, HiSeq2500 HTv4, SR, dual-indexing, 50 cycles).
# [2] = system: PANC-1 cells; assay: RNA-seq differential gene expression, PANC-1; format: cell-based; conditions: PANC-1, 5 µM, 48 h
# Experimental: as §1
# (§2) RNA-seq reads were aligned to hg38 using STAR aligner. Protein-coding genes with more than 10 reads in more than three samples were used for the analysis (total samples N = 86; genes N = 13,003). […]
# [3] = system: MV4;11 cells; assay: Proliferation inhibition, MV4;11; format: cell-based, human; conditions: MV4;11
# [4] = system: ZR-75-1 cells; assay: RNA-seq differential gene expression, ZR-75-1; format: cell-based; conditions: ZR-75-1, 5 µM, 48 h
# Experimental: as §1, §2
# [5] = system: MEIS1, MNDA and CD11b expression in MV4;11 and MOLM-13 xenografts; assay: Ex vivo gene expression in MV4;11 and MOLM-13 xenografts; design: species or system mice; conditions: 17 (MV4;11) or 11 (MOLM-13) days of treatment
# Experimental: as §1
# Tumors were harvested, dissociated and total RNA was extracted using the TissueLyser (Qiagen, Hilden, Germany) together with RNeasy-Plus Mini kit according to the manufacturer protocol.
compound,measurement,setting,value
Cc1c(CN2CCC3(CC2)CN(c2ncnc4sc(CC(F)(F)F)cc24)C3)ccc2c1cc(C#N)n2CC(N)=O [BAY-155],CD11b and MNDA gene expression,[1],up-regulation
same,MEIS1 gene expression,[1],stronger expression down-regulation
same,number of differentially expressed genes,[2],346 genes
same,fold improved proliferation inhibition vs MI-503,[3],2.8 fold
same,number of differentially expressed genes,[4],10 genes
same,MEIS1 expression ex vivo,[5],concentration-dependent and significant down-regulation
same,MNDA and CD11b expression ex vivo,[5],up-regulation
